The record followed here is patent publication US8703793B2, “Tricyclic pyridine derivatives, medicaments containing such compounds, their use and process for their preparation” (Boehringer Ingelheim International GmbH, priority 2008, dated 2014).

The target in one experiment is T1, Recombinant human CETP (Homo sapiens, UniProt P11597).
T1 construct: made in house; host or cells: CHO cells (secreted into conditioned medium)
T1 sequence (P11597 18-493): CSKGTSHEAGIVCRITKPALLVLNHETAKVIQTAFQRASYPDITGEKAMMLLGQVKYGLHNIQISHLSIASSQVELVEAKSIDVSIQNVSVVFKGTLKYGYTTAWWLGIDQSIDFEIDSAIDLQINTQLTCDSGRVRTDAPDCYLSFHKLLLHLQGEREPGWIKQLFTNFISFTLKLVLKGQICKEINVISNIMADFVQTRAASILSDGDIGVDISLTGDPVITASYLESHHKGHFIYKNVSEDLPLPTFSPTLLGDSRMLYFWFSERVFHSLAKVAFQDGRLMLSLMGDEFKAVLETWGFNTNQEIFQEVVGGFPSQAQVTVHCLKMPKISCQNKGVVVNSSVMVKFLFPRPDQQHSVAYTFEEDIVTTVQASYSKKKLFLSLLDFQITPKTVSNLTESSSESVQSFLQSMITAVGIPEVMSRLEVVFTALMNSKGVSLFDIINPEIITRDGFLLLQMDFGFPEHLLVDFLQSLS
The experiment can be described thus: CETP Scintillation Proximity Assay. The format is biochemical. To be noted: 3H-cholesteryl ester transfer from human HDL donor to biotin labelled LDL, over night at room temperature; read-out: IC50 values for CETP inhibitory activity. The protocol: CETP Scintillation Proximity Assay
Recombinant human CETP is partially purified from medium conditioned by CETP expressing CHO cells. In a 96 well homogeneous assay format CETP transfers ^3H-labelled cholesteryl esters from human HDL donor particles to biotin labelled LDL particles. Following over night incubation at room temperature the reaction is stopped by addition of streptavidin-coupled scintillation proximity assay (SPA) beads. These beads captured the biotinylated acceptor particles and the radioactivity is measured. The assay system is purchased and performed according to the manufacturer's recommendations (GE Healthcare).
Inhibitory activity of compounds is determined as percentage of positive control activity containing CETP together with donor and acceptor particles. Background activity is determined by adding buffer instead of CETP. Serial dilution of compound in buffer containing 10% DMSO is performed in order to determine the IC50 values.
As usually defined, the IC50 is the concentration needed to halve the response being measured. With `CC1(C)Cc2nc3c(c(C4CCCC4)c2[C@@H](O)C1)[C@H](c1ccc(C(F)(F)F)cc1)OC31CCCCC1` (single isomer, unassigned) [1 (8), (1′S,8′S)-9′-Cyclopentyl-6′,6′-dimethyl-1′-(4-(trifluoromethyl)phenyl)-5′,6′,7′,8′-tetrahydro-1′H-spiro[cyclohexane-1,3′-furo[3,4-b]quinolin]-8′-ol], the IC50 was under 1000 nM.
`CC1(C)Cc2nc3c(c(C4CCCC4)c2[C@@H](O)C1)[C@@H](c1ccc(C(F)(F)F)cc1)OC31CCCCC1` (single isomer, unassigned) [1 (9), (1′R,8′S)-9′-Cyclopentyl-6′,6′-dimethyl-1′-(4-(trifluoromethyl)phenyl)-5′,6′,7′,8′-tetrahydro-1′H-spiro[cyclohexane-1,3′-furo[3,4-b]quinolin]-8′-ol]: the IC50 is under 20000 nM.
Consider `CC1(C)Cc2nc3c(c(C4CCCC4)c2[C@@H](O)C1)[C@H](c1ccc(C(F)(F)F)cc1)OC31CCCC1` (single isomer, unassigned) [1 (10), (1′S,8′S)-9′-Cyclopentyl-6′,6′-dimethyl-1′-(4-(trifluoromethyl)phenyl)-5′,6′,7′,8′-tetrahydro-1′H-spiro[cyclopentane-1,3′-furo[3,4-b]quinolin]-8′-ol], for which the IC50 is under 1000 nM.
`CC1(C)Cc2nc3c(c(C4CCCC4)c2[C@@H](O)C1)C(c1ccc(C(F)(F)F)cc1)OC3` (single isomer, unassigned) [Diastereomer 1 of Example 1 (3)]: the 50% inhibitory concentration (IC50) was under 20000 nM.
On the same count and under the same terms, as for `CC1OC(c2ccc(C(F)(F)F)cc2)c2c1nc1c(c2C2CCCC2)[C@@H](O)CC(C)(C)C1` (single isomer, unassigned) [Diastereomer 3 of Example 1 (2)], the figure is under 1000 nM.
Still for that read-out and setting: to `CC1OC(c2ccc(C(F)(F)F)cc2)c2c1nc1c(c2C2CCCC2)[C@@H](O)CC(C)(C)C1` (single isomer, unassigned) [Diastereomer 4 of Example 1 (2)] belongs under 2000 nM; to `CC1OC(c2ccc(C(F)(F)F)cc2)c2c1nc1c(c2C2CCCC2)[C@@H](O)CC(C)(C)C1` (single isomer, unassigned) [Example 1 (1)], under 2000 nM; to `CC1(C)Cc2nc3c(c(C4CCCC4)c2C(O)C1)C(c1ccc(C(F)(F)F)cc1)OC3(C)C` (single isomer, unassigned) [Example 1 (4), 9-Cyclopentyl-3,3,6,6-tetramethyl-1-(4-trifluoromethyl-phenyl)-1,3,5,6,7,8-hexahydro-furo[3,4-b]quinolin-8-ol], under 5000 nM.
For `CC1(C)Cc2nc3c(c(C4CCCC4)c2[C@@H](O)C1)C(c1ccc(C(F)(F)F)cc1)OC3(C)C` (single isomer, unassigned) [Example 1 (5)], the IC50 is under 1000 nM.
Turning to `CC1(C)Cc2nc3c(c(C4CCCC4)c2[C@@H](O)C1)C(c1ccc(C(F)(F)F)cc1)OC3(C)C` (single isomer, unassigned) [Example 1 (6)], the IC50 is under 20000 nM.
For the compound `CC1OC(c2ccc(C(F)(F)F)cc2)c2c1nc1c(c2C2CCCCC2)[C@@H](O)CC(C)(C)C1` (single isomer, unassigned) [Example 1 (7)], the IC50 is under 1000 nM.
For `CC1OC(c2ccc(C(F)(F)F)cc2)c2c1nc1c(c2C2CCCC2)[C@@H](O)CC(C)(C)C1` (single isomer, unassigned) [Example 1], the IC50 is under 2000 nM.
Consider `CC1OC(c2ccc(C(C)(C)C)cc2)c2c1nc1c(c2C2CCCCC2)[C@@H](O)CC(C)(C)C1` (stereo partly drawn) [Example 2, 8-(S)-1-(4-tert-Butyl-phenyl)-9-cyclohexyl-3,6,6-trimethyl-1,3,5,6,7,8-hexahydro-furo[3,4b]quinolin-8-ol], for which the IC50 is under 5000 nM.

The experiment is the same for the next values; noted with them: comparison among diastereomers of the same structure.
For the compound `CC1OC(c2ccc(C(F)(F)F)cc2)c2c1nc1c(c2C2CCCC2)[C@@H](O)CC(C)(C)C1` (single isomer, unassigned) [Diastereomer 3 of Example 1 (2)], the “CETP inhibitory potency compared to the other diastereomers” value is recorded as “higher CETP inhibitory potency as compared to the other diastereomers”.
`CC1(C)Cc2nc3c(c(C4CCCC4)c2[C@@H](O)C1)C(c1ccc(C(F)(F)F)cc1)OC3(C)C` (single isomer, unassigned) [Example 1 (5)]: the “CETP inhibitory potency compared to the other diastereomers” value is recorded as “higher CETP inhibitory potency as compared to the other diastereomer”.
